Results taken from article PMC12203862, “BroadAMP-GPT: AI-Driven generation of broad-spectrum antimicrobial peptides for combating multidrug-resistant ESKAPE pathogens” (Gut Microbes, 2025).
In brackets after ≈: the same amount, converted by molar mass. Read-outs that look alike come from different tables or passages of the source. Residues, ends and D or L forms follow the SMILES beside them.

Tests used:
S. aureus ATCC 29213 = test: microbe, parasite or virus in culture; assay type: cell-based
A. baumannii 7979 = test: microbe, parasite or virus in culture; assay type: cell-based
Description: (§1) Bacterial strains and growth conditions: All Gram-negative and Gram-positive bacterial strains (Supplementary Table S8) were cultured in Luria-Bertani (LB) or trypticase soy broth (TSB) agar plates, respectively, and incubated overnight at 37 °C unless specifically indicated. A single colony of the tested bacterial strains was inoculated into medium broth with shaking at 220 rpm for further experiments.
(§2) Minimal inhibitory concentrations: Antimicrobial susceptibility testing was performed by broth microdilution method for AMPs against Gram-positive and Gram-negative pathogens above mentioned, following the methods of document CLSI M100-ED34.[43] The MICs were defined as the lowest concentrations that inhibit visible growth of the tested bacteria. E. coli ATCC 25,922 and S. aureus ATCC 29,213 were served as quality controls.

A. baumannii AB11 = test: microbe, parasite or virus in culture; assay type: cell-based
Description: as §1, §2

E. coli ATCC 25922 = test: microbe, parasite or virus in culture; assay type: cell-based
Description: as §1, §2

E. faecalis ES01 = test: microbe, parasite or virus in culture; assay type: cell-based
Description: as §1, §2

E. faecalis J2 = test: microbe, parasite or virus in culture; assay type: cell-based
Description: as §1, §2

E. faecalis JH2-2 = test: microbe, parasite or virus in culture; assay type: cell-based
Description: as §1, §2

E. faecalis SF23-1 = test: microbe, parasite or virus in culture; assay type: cell-based; details: Enterococcus faecalis, SF231; Table 1; E. faecalis SF23-1; ermB, tetL, cfr; broth microdilution; read-out: MIC
Description: as §1, §2

E. faecium HFY01 = test: microbe, parasite or virus in culture; assay type: cell-based
Description: as §1, §2

E. faecium MC38 = test: microbe, parasite or virus in culture; assay type: cell-based
Description: as §1, §2

E. faecium QF31 = test: microbe, parasite or virus in culture; assay type: cell-based
Description: as §1, §2

K. pneumoniae 9-1 = test: microbe, parasite or virus in culture; assay type: cell-based
Description: as §1, §2

P. aeruginosa PA14 = test: microbe, parasite or virus in culture; assay type: cell-based
Description: as §1, §2

P. aeruginosa PAO1 = test: microbe, parasite or virus in culture; assay type: cell-based; details: Pseudomonas aeruginosa; Table 1; P. aeruginosa PAO1; broth microdilution; read-out: MIC
Description: as §1, §2

S. agalactiae DL03 = test: microbe, parasite or virus in culture; assay type: cell-based
Description: as §1, §2

S. aureus M147-2 = test: microbe, parasite or virus in culture; assay type: cell-based
Description: as §1, §2

S. aureus M92-1 = test: microbe, parasite or virus in culture; assay type: cell-based
Description: as §1, §2

S. aureus YZSA-15 = test: microbe, parasite or virus in culture; assay type: cell-based
Description: as §1, §2

S. aureus YZSA-21 = test: microbe, parasite or virus in culture; assay type: cell-based
Description: as §1, §2

S. aureus YZSA-24 = test: microbe, parasite or virus in culture; assay type: cell-based
Description: as §1, §2

S. pyogenes DL02 = test: microbe, parasite or virus in culture; assay type: cell-based
Description: as §1, §2

S. suis SH0918 = test: microbe, parasite or virus in culture; assay type: cell-based
Description: as §1, §2

S. suis P1/7 = test: microbe, parasite or virus in culture
Description: as §1
as §2, with “bacteria.” for “bacteria. E. coli ATCC 25,922 and S. aureus ATCC 29,213 were served as quality controls.”

S. enteritis S1 = test: organism not typed; assay type: cell-based
Description: as §1, §2

[1] = tested on: S. aureus clinical isolates (n = 40); assay type: cell-based
Description: as §1, §2

[2] = tested on: four Gram-positive and five Gram-negative bacteria, including ESKAPE pathogens; assay type: cell-based
Description: as §1, §2

Caco-2 = test: Cytotoxicity, CCK-8; assay type: cell-based, human
Description: (§3) The cytotoxicity of selected AMPs to human laryngeal carcinoma epithelial cell (HEp-2) and colorectal adenocarcinoma cell (Caco-2) lines was evaluated using the CCK-8 method as previously described.[55] The cells were cultured in high-glucose dulbecco’s modified eagle medium (DMEM) supplemented with 10% fetal bovine serum (FBS) and 1% penicillin-streptomycin. Cells were inoculated in 96-well sterile microtiter plate at 5000 cells/100 μL. After cultured (37℃, 5%CO2) for 24 h, cells were treated with AMPs at concentrations ranging from 8 to 128 μg/mL for another 48 h. Afterward, the culture medium was replaced by fresh DMEM medium containing 10% CCK-8 and incubated for 1 h. The absorbance of the solution was measured at 450 nm by a microplate reader. Cell viability was calculated as: % cell viability = [(Abssample - Absblank)/(Absnegative - Absblank)]×100%. Each experiment was carried out with three replicates.

HEp-2 = test: Cytotoxicity, CCK-8; assay type: cell-based, human
Description: as §3

mouse red blood cells = test: Haemolysis assay; assay type: cell-based; details: MIC values against S. aureus ATCC 29213
Description: Red blood cells (RBCs) from Kunming mice were used to evaluate the hemolytic toxicity of the selected AMPs. Fresh red blood cells were collected from mice and washed until the supernatant was completely cleared. Added 19-fold volume of PBS to prepare 2% RBC suspension. […] Afterward, the mixture was centrifuged at 1500 rpm for 10 min. Then transferred 30 µL supernatant to 96-well plate containing 70 µL PBS. The absorbance of the sample was measured at 450 nm by a microplate reader. PBS and 2% Triton X-100 was used as negative and positive control, respectively. The experiment was performed in triplicate and the hemolysis activity was calculated by the formula hemolysis = [(Absorbancesample- AbsorbancePBS)/(AbsorbanceTriton x-100-AbsorbancePBS)]×100%.

Work on CCC[C@@H]1C[C@@H](C(=O)N[C@@H]([C@H]2O[C@H](SC)[C@H](O)[C@@H](O)[C@H]2O)[C@H](C)Cl)N(C)C1 [CLI, clindamycin] yielded an MIC (S. aureus ATCC 29213; Staphylococcus aureus, ATCC29213) of 0.125 µg/mL (≈ 0.294 µM), an MIC (A. baumannii 7979; Acinetobacter baumannii, Table 1, A. baumannii 7979, broth microdilution, read-out: MIC) greater than 64 µg/mL and an MIC (A. baumannii AB11; Acinetobacter baumannii, Table 1, A. baumannii AB11, broth microdilution, read-out: MIC) of 0.5 µg/mL (≈ 1.18 µM). It also gave an MIC (E. coli ATCC 25922; Escherichia coli, ATCC25922, Table 1, E. coli ATCC 25922, broth microdilution, read-out: MIC) greater than 64 µg/mL, an MIC (E. faecalis ES01; Enterococcus faecalis, Table 1, E. faecalis ES01, ermB, vanB, broth microdilution, read-out: MIC) greater than 64 µg/mL and an MIC (E. faecalis J2; Enterococcus faecalis, Table 1, E. faecalis J2, ermB, optrA, broth microdilution, read-out: MIC) greater than 64 µg/mL. It also gave an MIC (E. faecalis JH2-2; Enterococcus faecalis, JH22, Table 1, E. faecalis JH2-2, broth microdilution, read-out: MIC) of 0.5 µg/mL (≈ 1.18 µM), an MIC (E. faecalis SF23-1) greater than 64 µg/mL and an MIC (E. faecium HFY01; Enterococcus faecium, Table 1, E. faecium HFY01, broth microdilution, read-out: MIC) of 0.5 µg/mL (≈ 1.18 µM). For the same molecule, the MIC (E. faecium MC38; Enterococcus faecium, Table 1, E. faecium MC38, ermB, optrA, broth microdilution, read-out: MIC) was greater than 64 µg/mL, the MIC (E. faecium QF31; Enterococcus faecium, Table 1, E. faecium QF31, ermB, cfr, broth microdilution, read-out: MIC) was greater than 64 µg/mL and the MIC (K. pneumoniae 9-1; Klebsiella pneumoniae, 91, Table 1, K. pneumoniae 9-1, broth microdilution, read-out: MIC) was greater than 64 µg/mL. For the same molecule, the MIC (P. aeruginosa PA14; Pseudomonas aeruginosa, Table 1, P. aeruginosa PA14, broth microdilution, read-out: MIC) was greater than 64 µg/mL, the MIC (P. aeruginosa PAO1) was greater than 64 µg/mL and the MIC (S. agalactiae DL03; Streptococcus agalactiae, Table 1, S. agalactiae DL03, ermB, broth microdilution, read-out: MIC) was greater than 64 µg/mL. It also gave an MIC (S. aureus M147-2; Staphylococcus aureus, M1472, Table 1, S. aureus M147-2, ermB, tetL, cfr, broth microdilution, read-out: MIC) greater than 64 µg/mL, an MIC (S. aureus M92-1; Staphylococcus aureus, M921, Table 1, S. aureus M92-1, ermB, tetL, optrA, broth microdilution, read-out: MIC) greater than 64 µg/mL and an MIC (S. aureus YZSA-15; Staphylococcus aureus, YZSA15, Table 1, S. aureus YZSA-15, ermC, vanB, broth microdilution, read-out: MIC) greater than 64 µg/mL. It also gave an MIC (S. aureus YZSA-21; Staphylococcus aureus, YZSA21, Table 1, S. aureus YZSA-21, ermC, broth microdilution, read-out: MIC) greater than 64 µg/mL, an MIC (S. aureus YZSA-24; Staphylococcus aureus, YZSA24, Table 1, S. aureus YZSA-24, ermC, mecA, broth microdilution, read-out: MIC) greater than 64 µg/mL and an MIC (S. pyogenes DL02; Streptococcus pyogenes, Table 1, S. pyogenes DL02, ermB, broth microdilution, read-out: MIC) greater than 64 µg/mL. The MIC (S. suis SH0918; Streptococcus suis, Table 1, S. suis SH0918, ermB, tetO, optrA, broth microdilution, read-out: MIC) was greater than 64 µg/mL, the MIC (S. suis P1/7; Streptococcus suis, P1/7) was 0.125 µg/mL (≈ 0.294 µM) and the MIC (S. enteritis S1; Table 1, S. enteritis S1, broth microdilution, read-out: MIC) was greater than 64 µg/mL.

CC(C)C[C@H](NC(=O)[C@H](CCCCN)NC(=O)[C@H](Cc1c[nH]c2ccccc12)NC(=O)[C@H](CC(C)C)NC(=O)[C@H](CC(C)C)NC(=O)[C@H](CCCCN)NC(=O)[C@H](Cc1c[nH]c2ccccc12)NC(=O)[C@H](Cc1c[nH]c2ccccc12)NC(=O)[C@H](CCCCN)NC(=O)[C@H](CCCCN)NC(=O)[C@H](C)N)C(=O)N[C@@H](Cc1c[nH]c2ccccc12)C(=O)N[C@@H](CCCCN)C(=O)N[C@@H](CCCCN)C(=O)N[C@@H](C)C(=O)N[C@@H](CCCCN)C(=O)O [AMP_S4] (H-AKKWWKLLWKLWKKAK-OH) showed an MIC (S. aureus ATCC 29213; ATCC 29213) of 4 µg/mL (≈ 1.87 µM), an MIC (A. baumannii 7979; 7979) of 4 µg/mL (≈ 1.87 µM) and an MIC (A. baumannii AB11; AB11) of 2 µg/mL (≈ 0.934 µM). The MIC (E. coli ATCC 25922; ATCC 25922) was 8 µg/mL (≈ 3.74 µM), the MIC (E. faecalis ES01; ES01) was 4 µg/mL (≈ 1.87 µM) and the MIC (E. faecalis J2; J2) was 8 µg/mL (≈ 3.74 µM). For the same molecule, the MIC (E. faecalis JH2-2; JH2-2) was 8 µg/mL (≈ 3.74 µM), the MIC (E. faecium HFY01; HFY01) was 4 µg/mL (≈ 1.87 µM) and the MIC (E. faecium MC38; MC38) was 4 µg/mL (≈ 1.87 µM). It also gave an MIC (E. faecium QF31; QF31) of 4 µg/mL (≈ 1.87 µM), an MIC (K. pneumoniae 9-1; 9-1) of 16 µg/mL (≈ 7.47 µM) and an MIC (P. aeruginosa PA14; PA14) of 8 µg/mL (≈ 3.74 µM). The MIC (S. agalactiae DL03; DL03) was 4 µg/mL (≈ 1.87 µM), the MIC (S. aureus M147-2; M147-2) was 4 µg/mL (≈ 1.87 µM) and the MIC (S. aureus M92-1; M92-1) was 4 µg/mL (≈ 1.87 µM). The MIC (S. aureus YZSA-15; YZSA-15) was 4 µg/mL (≈ 1.87 µM), the MIC (S. aureus YZSA-21; YZSA-21) was 4 µg/mL (≈ 1.87 µM) and the MIC (S. aureus YZSA-24; YZSA-24) was 16 µg/mL (≈ 7.47 µM). It also gave an MIC (S. pyogenes DL02; DL02) of 4 µg/mL (≈ 1.87 µM), an MIC (S. suis SH0918) of 4 µg/mL (≈ 1.87 µM) and an MIC (S. suis P1/7) of 4 µg/mL (≈ 1.87 µM). The MIC (S. enteritis S1) was 16 µg/mL (≈ 7.47 µM), the “MICs, range over clinical isolates” value [1] was 4 to 32 µg/mL and the “MIC values, range” value [2] was 2 to 16 µg/mL. The “MICs, range over panel” value [2] was 2 to 16 µg/mL, the CC50 (Caco-2; 48 h) was 15.82 µg/mL (≈ 7.39 µM) and the CC50/MIC (Caco-2; Caco-2, MIC values against S. aureus ATCC 29213) was 3.96. It also gave a CC50 (HEp-2; 48 h) of 35.16 µg/mL (≈ 16.4 µM), a CC50/MIC (HEp-2; HEp-2, MIC values against S. aureus ATCC 29213) of 8.8 and an HC50/MIC (mouse red blood cells) of 4.56.
